Assay results reported in US20130040935A1, “CYCLIC KETO-ENOLS FOR THERAPY” (BAYER INTELLECTUAL PROPERTY GMBH, priority 2010, published 2013).
Read-outs that look alike come from different tables or passages of the source.

Columns and labels:
[1] = biological target: T1, human ACC1 (acetyl-coenzyme A carboxylase alpha transcript variant 1) (Homo sapiens, UniProt Q13085); assay: Human ACC1 enzyme assay, Assay B1 (ADP-Glo); type: biochemical
T1 construct: FLAG (C); made in house; host or cells: baculovirus-infected insect cells (Hi5)

MCF7 = assay: Cell proliferation assay (CellTiter-Glo, 96 h), MCF7; type: cell-based; details: Homo sapiens, MCF7; Table 7; 96-hour incubation
How it was run: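 Cells seeded at 2000-5000 cells/well, incubated overnight at 37° C., then exposed to compound in growth medium for 96 hours at 37° C. Viability read by CellTiter-Glo luminescence; t=0 values subtracted from t=96 h values, and percent growth inhibition derived relative to untreated controls.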

[2] = biological target: human ACC2 (acetyl-coenzyme A carboxylase 2) (Homo sapiens, UniProt O00763); assay: Human ACC2 enzyme assay, Assay B2 (ADP-Glo);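 further: human ACC2 activity read as ADP product, detected by luciferase glow luminescence after residual ATP removal, enzyme near 2 ng/µl in linear range, detection steps at 22 °C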
Sequence of human ACC2 (acetyl-coenzyme A carboxylase 2) (O00763 27-2458 limits assumed): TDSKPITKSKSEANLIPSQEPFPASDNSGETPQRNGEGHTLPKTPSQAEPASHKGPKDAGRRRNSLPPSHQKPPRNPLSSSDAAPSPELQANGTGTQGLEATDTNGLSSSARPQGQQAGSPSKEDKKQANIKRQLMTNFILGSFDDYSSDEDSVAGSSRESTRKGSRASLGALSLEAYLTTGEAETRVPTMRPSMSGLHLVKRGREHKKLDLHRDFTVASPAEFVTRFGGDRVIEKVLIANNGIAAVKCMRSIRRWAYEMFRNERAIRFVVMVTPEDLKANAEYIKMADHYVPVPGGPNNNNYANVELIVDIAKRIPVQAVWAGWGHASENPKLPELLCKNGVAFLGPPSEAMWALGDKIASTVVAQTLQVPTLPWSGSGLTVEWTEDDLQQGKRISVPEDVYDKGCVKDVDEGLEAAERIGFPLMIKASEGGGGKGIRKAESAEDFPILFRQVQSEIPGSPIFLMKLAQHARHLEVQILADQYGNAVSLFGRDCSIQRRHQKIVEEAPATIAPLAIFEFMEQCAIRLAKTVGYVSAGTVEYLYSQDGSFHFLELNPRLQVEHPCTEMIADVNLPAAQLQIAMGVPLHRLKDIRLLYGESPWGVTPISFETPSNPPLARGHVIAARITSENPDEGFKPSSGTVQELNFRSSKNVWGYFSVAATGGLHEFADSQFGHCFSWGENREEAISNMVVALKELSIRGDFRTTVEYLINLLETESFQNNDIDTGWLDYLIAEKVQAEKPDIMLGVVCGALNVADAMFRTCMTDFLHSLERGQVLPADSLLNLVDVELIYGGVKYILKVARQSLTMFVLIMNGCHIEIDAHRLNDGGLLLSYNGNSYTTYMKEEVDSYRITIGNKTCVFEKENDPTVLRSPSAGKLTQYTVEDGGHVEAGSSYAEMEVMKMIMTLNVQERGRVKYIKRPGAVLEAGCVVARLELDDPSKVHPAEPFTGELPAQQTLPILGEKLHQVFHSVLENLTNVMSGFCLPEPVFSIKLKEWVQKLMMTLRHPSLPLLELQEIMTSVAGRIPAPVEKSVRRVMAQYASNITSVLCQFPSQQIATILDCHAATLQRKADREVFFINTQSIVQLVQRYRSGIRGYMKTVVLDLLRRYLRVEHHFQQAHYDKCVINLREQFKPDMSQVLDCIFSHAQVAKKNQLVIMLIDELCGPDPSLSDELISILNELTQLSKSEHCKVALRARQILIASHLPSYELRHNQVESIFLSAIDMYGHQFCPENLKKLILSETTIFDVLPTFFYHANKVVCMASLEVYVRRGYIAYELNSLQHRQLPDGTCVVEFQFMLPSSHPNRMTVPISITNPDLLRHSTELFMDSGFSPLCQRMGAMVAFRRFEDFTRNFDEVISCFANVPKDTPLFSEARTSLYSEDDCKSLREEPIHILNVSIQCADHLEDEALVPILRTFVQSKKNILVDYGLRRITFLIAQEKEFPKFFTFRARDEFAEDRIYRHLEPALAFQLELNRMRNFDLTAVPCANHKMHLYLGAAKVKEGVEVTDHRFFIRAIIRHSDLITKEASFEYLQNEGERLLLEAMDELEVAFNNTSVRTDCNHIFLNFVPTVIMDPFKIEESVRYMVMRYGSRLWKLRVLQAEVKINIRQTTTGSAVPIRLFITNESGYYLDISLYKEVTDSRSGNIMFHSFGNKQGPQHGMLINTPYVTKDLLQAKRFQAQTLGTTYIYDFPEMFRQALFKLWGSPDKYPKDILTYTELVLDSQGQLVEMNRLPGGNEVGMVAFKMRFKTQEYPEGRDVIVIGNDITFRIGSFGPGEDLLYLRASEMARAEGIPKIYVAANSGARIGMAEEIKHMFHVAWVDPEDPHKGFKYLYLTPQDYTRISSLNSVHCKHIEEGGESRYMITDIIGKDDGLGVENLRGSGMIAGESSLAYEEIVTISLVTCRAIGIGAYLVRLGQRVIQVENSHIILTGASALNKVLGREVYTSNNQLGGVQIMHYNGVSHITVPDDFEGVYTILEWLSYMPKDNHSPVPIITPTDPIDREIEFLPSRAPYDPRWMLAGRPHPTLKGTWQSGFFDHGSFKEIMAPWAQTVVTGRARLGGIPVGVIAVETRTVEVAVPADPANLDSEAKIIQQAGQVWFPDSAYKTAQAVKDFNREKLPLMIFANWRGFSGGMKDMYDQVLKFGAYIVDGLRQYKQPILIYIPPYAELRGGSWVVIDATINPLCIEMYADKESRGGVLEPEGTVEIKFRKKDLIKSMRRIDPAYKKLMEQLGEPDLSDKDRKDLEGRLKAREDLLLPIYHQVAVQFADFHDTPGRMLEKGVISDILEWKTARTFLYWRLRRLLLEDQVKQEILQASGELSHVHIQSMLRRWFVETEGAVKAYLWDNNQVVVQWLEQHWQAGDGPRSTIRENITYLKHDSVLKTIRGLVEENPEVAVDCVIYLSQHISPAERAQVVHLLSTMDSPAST

recombinant human ACC1 = recombinant human ACC1 (Homo sapiens, UniProt Q13085); assay: Human ACC1 enzyme assay, Assay A1 (HTRF ADP immunoassay);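 further: ADP generated by the enzyme quantified via competitive time-resolved FRET, read as europium cryptate to d2 energy transfer after 1 h at 22 °C with labelled ADP tracer and anti-ADP antibody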
Procedure: The inhibitory activity of the substances of this invention with regard to acetyl-CoA carboxylase 1 (ACC1) was measured using the ACC1 assay described in the paragraphs below. The basic principle of the assay is the measurement of adenosine diphosphate (ADP), which is formed as a by-product, by means of an HTRF®-based competitive immunoassay (HTRF=Homogeneous Time Resolved Fluorescence).
Typical concentrations were in the range of 2.5 ng/μl.
The amount of complex between d2-labelled ADP and europium cryptate-labelled anti-ADP antibody was then determined by measuring the resonance energy transfer from the europium cryptate to d2.

[3] = biological target: acetyl-CoA carboxylase 2 (ACC2) (Homo sapiens, UniProt O00763); assay: Human ACC2 enzyme assay, Assay A2 (HTRF ADP immunoassay);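 further: ADP generated by ACC2 quantified via competitive time-resolved FRET between europium cryptate anti-ADP antibody and d2-tagged ADP, enzyme kept in linear range near 0.6 ng/µl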
Sequence of acetyl-CoA carboxylase 2 (ACC2) (O00763 39-2458 limits assumed): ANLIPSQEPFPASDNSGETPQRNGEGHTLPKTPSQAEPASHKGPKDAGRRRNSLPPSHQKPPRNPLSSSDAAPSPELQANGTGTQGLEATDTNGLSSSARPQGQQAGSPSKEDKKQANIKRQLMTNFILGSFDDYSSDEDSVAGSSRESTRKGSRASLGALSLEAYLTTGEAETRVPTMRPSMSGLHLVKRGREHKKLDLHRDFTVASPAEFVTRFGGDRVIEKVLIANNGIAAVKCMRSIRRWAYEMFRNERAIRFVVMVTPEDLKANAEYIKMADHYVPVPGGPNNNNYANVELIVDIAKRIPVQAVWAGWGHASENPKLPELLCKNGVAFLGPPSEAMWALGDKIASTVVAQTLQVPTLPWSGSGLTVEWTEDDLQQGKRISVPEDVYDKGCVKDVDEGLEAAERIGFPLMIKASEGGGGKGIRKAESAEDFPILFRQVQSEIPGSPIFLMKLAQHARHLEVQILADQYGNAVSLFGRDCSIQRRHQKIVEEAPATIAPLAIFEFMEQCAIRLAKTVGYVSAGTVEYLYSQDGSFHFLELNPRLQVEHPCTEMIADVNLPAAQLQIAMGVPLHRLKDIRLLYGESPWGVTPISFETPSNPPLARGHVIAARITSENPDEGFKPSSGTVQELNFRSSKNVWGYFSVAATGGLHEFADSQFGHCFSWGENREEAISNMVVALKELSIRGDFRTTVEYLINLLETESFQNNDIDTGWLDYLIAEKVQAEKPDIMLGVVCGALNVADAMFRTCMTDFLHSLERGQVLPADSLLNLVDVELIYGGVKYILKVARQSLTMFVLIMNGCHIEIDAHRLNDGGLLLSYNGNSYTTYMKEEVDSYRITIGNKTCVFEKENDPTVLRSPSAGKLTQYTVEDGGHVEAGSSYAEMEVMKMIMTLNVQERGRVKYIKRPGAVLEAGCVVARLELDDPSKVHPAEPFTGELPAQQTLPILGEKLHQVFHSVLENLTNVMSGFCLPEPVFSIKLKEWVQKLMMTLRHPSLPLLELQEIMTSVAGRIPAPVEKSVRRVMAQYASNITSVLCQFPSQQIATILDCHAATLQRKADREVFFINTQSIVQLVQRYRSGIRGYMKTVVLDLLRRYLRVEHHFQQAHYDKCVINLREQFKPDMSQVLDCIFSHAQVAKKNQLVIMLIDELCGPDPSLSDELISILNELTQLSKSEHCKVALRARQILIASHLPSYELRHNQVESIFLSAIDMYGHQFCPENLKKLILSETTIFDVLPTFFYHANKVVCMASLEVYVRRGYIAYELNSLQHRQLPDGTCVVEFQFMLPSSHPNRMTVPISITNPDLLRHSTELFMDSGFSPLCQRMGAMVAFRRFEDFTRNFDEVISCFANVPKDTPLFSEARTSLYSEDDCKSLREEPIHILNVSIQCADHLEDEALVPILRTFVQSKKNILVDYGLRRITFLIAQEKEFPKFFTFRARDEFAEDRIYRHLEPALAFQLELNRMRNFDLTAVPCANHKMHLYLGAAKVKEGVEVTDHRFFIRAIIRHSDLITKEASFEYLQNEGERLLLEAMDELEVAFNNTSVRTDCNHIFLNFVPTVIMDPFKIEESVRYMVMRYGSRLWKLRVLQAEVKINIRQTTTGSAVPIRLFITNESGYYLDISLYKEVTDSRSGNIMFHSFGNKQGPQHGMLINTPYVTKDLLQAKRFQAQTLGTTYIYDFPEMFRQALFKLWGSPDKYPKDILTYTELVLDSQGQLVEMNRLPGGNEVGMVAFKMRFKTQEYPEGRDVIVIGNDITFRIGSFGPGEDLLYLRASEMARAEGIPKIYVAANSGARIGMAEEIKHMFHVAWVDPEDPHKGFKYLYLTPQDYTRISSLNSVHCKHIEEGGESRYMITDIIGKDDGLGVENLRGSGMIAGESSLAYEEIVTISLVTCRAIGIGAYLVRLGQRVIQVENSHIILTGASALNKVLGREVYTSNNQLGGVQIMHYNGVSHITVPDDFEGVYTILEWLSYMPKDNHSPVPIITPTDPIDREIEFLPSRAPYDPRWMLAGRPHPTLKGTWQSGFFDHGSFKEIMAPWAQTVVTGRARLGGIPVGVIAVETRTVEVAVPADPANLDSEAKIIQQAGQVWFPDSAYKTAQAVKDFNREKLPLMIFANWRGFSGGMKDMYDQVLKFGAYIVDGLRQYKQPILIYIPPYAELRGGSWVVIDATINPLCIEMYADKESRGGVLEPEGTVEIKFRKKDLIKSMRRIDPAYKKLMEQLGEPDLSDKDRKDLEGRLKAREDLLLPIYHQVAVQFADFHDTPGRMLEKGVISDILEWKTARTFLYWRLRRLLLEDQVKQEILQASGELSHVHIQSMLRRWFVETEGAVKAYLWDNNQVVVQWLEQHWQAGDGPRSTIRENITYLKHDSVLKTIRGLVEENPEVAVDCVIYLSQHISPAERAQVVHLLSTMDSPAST
Procedure: The inhibitory activity of the substances of this invention with regard to acetyl-CoA carboxylase 2 (ACC2) was measured using the ACC2 assay described in the paragraphs below. The basic principle of the assay is the measurement of adenosine diphosphate (ADP), which is formed as a by-product, by means of an HTRF®-based competitive immunoassay (HTRF=Homogeneous Time Resolved Fluorescence).
The amount of complex of d2-labelled ADP and europium cryptate-labelled anti-ADP antibody was then determined by measuring the resonance energy transfer of europium cryptate to d2.

[4] = Assay B1, read-out: ACC 1 (=B1) IC50

IC50 (MCF7) | IC50 [2] | IC50 (recombinant human ACC1) | IC50 [3] | IC50 [1, 4] | Structure (SMILES) | IC50 [1]
288 nM | 6.59 µM | 98 nM | 5.42 µM | 124 nM | Cc1ccc(-c2ccc(Cl)cc2)cc1C1=C(O)[C@]2(CC[C@](O)(C(F)(F)F)CC2)NC1=O [1-122, (5r,8r)-3-(4′-Chloro-4-methylbiphenyl-3-yl)-4,8-dihydroxy-8-(trifluoromethyl)-1-azaspiro[4.5]dec-3-en-2-one] | 
309 nM | 11.2 µM | 173 nM | 3.44 µM | 562 nM | Cc1ccc(-c2ccc(Cl)c(F)c2)cc1C1=C(O)[C@]2(CC[C@](O)(C(F)(F)F)CC2)NC1=O [1-123, (5r,8r)-3-(4′-Chloro-3′-fluoro-4-methylbiphenyl-3-yl)-4,8-dihydroxy-8-(trifluoromethyl)-1-azaspiro[4.5]dec-3-en-2-one] | 
1700 nM | > 20 µM | 458 nM | > 20 µM | 467 nM | Cc1ccc(-c2ccc(F)c(F)c2)cc1C1=C(O)[C@]2(CC[C@](O)(C(F)(F)F)CC2)NC1=O [1-124, (5r,8r)-3-(3′,4′-Difluoro-4-methylbiphenyl-3-yl)-4,8-dihydroxy-8-(trifluoromethyl)-1-azaspiro[4.5]dec-3-en-2-one] | 
322 nM | 6.77 µM | 281 nM | 3.99 µM | 217 nM | Cc1ccc(-c2ccc(Cl)cc2)c(C)c1C1=C(O)[C@]2(CC[C@](O)(C(F)(F)F)CC2)NC1=O [1-125, (5r,8r)-3-(4′-Chloro-2,4-dimethylbiphenyl-3-yl)-4,8-dihydroxy-8-(trifluoromethyl)-1-azaspiro[4.5]dec-3-en-2-one] | 
594 nM | 12.4 µM | 300 nM | 6.37 µM | 204 nM | Cc1ccc(-c2ccc(Cl)c(F)c2)c(C)c1C1=C(O)[C@]2(CC[C@](O)(C(F)(F)F)CC2)NC1=O [1-126, (5r,8r)-3-(4′-Chloro-3′-fluoro-2,4-dimethylbiphenyl-3-yl)-4,8-dihydroxy-8-(trifluoromethyl)-1-azaspiro[4.5]dec-3-en-2-one] | 
1400 nM | 13.4 µM | 216 nM | 4.84 µM | 145 nM | Cc1cc(F)c(-c2ccc(Cl)cc2)cc1C1=C(O)[C@]2(CC[C@](O)(C(F)(F)F)CC2)NC1=O [1-127, (5r,8r)-3-(4′-Chloro-6-fluoro-4-methylbiphenyl-3-yl)-4,8-dihydroxy-8-(trifluoromethyl)-1-azaspiro[4.5]dec-3-en-2-one] | 
172 nM | 10.6 µM | 349 nM | 9.61 µM | 267 nM | Cc1ccc(-c2ccc(F)c(F)c2)cc1C1=C(O)[C@]2(CC[C@@H](C(F)(F)F)CC2)NC1=O [1-129, (5r,8r)-3-(3′,4′-Difluoro-4-methylbiphenyl-3-yl)-4-hydroxy-8-(trifluoromethyl)-1-azaspiro[4.5]dec-3-en-2-one] | 
61 nM | 5.89 µM | 133 nM | 4.4 µM | 108 nM | Cc1ccc(-c2ccc(Cl)c(F)c2)cc1C1=C(O)[C@]2(CC[C@](O)(C(F)(F)C(F)(F)F)CC2)NC1=O [1-130, (5r,8r)-3-(4′-Chloro-3′-fluoro-4-methylbiphenyl-3-yl)-4,8-dihydroxy-8-(pentafluoroethyl)-1-azaspiro[4.5]dec-3-en-2-one] | 
60 nM | 5.62 µM | 266 nM | 7.62 µM | 98 nM | Cc1cc(F)c(-c2ccc(Cl)cc2)cc1C1=C(O)[C@]2(CC[C@](O)(C(F)(F)C(F)(F)F)CC2)NC1=O [1-131, (5r,8r)-3-(4′-Chloro-6-fluoro-4-methylbiphenyl-3-yl)-4,8-dihydroxy-8-(pentafluoroethyl)-1-azaspiro[4.5]dec-3-en-2-one] | 

The remaining lines, values behind:

Structure (SMILES) | IC50 (MCF7) | IC50 [2] | IC50 (recombinant human ACC1) | IC50 [3] | IC50 [1, 4] | IC50 [1]
CO[C@H]1CC[C@]2(CC1)NC(=O)C(c1cc(-c3ccc(F)c(F)c3)ccc1Cl)=C2O [1-104, (5s,8s)-3-(4 Chloro-3′,4′-difluorobiphenyl-3-yl)-4-hydroxy-8-methoxy-1-azaspiro[4.5]dec-3-en-2-one] | 455 nM | > 20 µM | 329 nM | 17.9 µM |  | 270 nM
CO[C@H]1CC[C@]2(CC1)NC(=O)C(c1cc(-c3ccc(Cl)c(F)c3)cc(F)c1C)=C2O [1-105, (5s,8s)-3-(4′-Chloro-3′,5-difluoro-4-methylbiphenyl-3-yl)-4-hydroxy-8-methoxy-1-azaspiro[4.5]dec-3-en-2-one] | 106 nM | 8.94 µM | 360 nM | 5.56 µM |  | 165 nM
CO[C@H]1CC[C@]2(CC1)NC(=O)C(c1cc(-c3ccc(Cl)cc3)cc(F)c1C)=C2O [1-106, (5s,8s)-3-(4′-Chloro 5 fluoro 4-methylbiphenyl-3-yl)-4-hydroxy-8-methoxy-1-azaspiro[4.5]dec-3-en-2-one] | 155 nM | 5.85 µM | 439 nM | 4.36 µM |  | 207 nM
CO[C@H]1CC[C@]2(CC1)NC(=O)C(c1cc(-c3ccc(F)c(F)c3)cc(F)c1C)=C2O [1-107, (5s,8s)-4-Hydroxy-8-methoxy-3-(3′,4′,5-trifluoro-4-methylbiphenyl-3-yl)-1-azaspiro[4.5]dec-3-en 2-one] | 267 nM | > 20 µM | 804 nM | > 20 µM |  | 376 nM
CO[C@H]1CC[C@]2(CC1)NC(=O)C(c1cc(-c3ccc(Cl)c(F)c3)c(Cl)cc1C)=C2O [1-108, (5s,8s)-3-(4′,6-Dichloro-3′-fluoro-4-methylbiphenyl-3-yl)-4-hydroxy-8-methoxy-1-azaspiro[4.5]dec-3-en-2-one] | 76 nM | 0.753 µM | 460 nM | 0.346 µM |  | 204 nM
CO[C@H]1CC[C@]2(CC1)NC(=O)C(c1cc(-c3ccc(Cl)cc3)c(Cl)cc1C)=C2O [1-109, (5s,8s)-3-(4′,6-Dichloro-4-methylbiphenyl-3-yl)-4-hydroxy-8-methoxy-1-azaspiro[4.5]dec-3-en-2-one] | 37 nM | 0.394 µM | 800 nM | 0.103 µM |  | 293 nM
Cc1ccc(-c2ccc(Cl)c(F)c2)cc1C1=C(O)[C@]2(CC[C@H](C)CC2)NC1=O [1-110, (5s,8s)-3-(4′-Chloro-3′-fluoro-4-methylbiphenyl-3-yl)-4-hydroxy-8-methyl-1-azaspiro[4.5]dec-3-en-2-one] | 45 nM | 0.488 µM | 194 nM | 0.64 µM | 80 nM | 
COC[C@H]1CC[C@]2(CC1)NC(=O)C(c1cc(-c3ccc(Cl)c(F)c3)ccc1C)=C2O [1-111, (5s,8s)-3-(4′-Chloro-3′-fluoro-4-methylbiphenyl-3-yl)-4-hydroxy-8-(methoxymethyl)-1-azaspiro[4.5]dec-3-en-2-one] | 194 nM | 1.12 µM | 177 nM | 0.592 µM | 126 nM | 
COC[C@H]1CC[C@]2(CC1)NC(=O)C(c1cc(-c3ccc(Cl)c(F)c3)ccc1Cl)=C2O [1-113, (5s,8s)-3-(4,4′-Dichloro-3′-fluorobiphenyl-3-yl)-4-hydroxy-8-(methoxymethyl)-1-azaspiro[4.5]dec-3-en-2-one] | 46 nM | 2.71 µM | 260 nM | 1.35 µM |  | 101 nM
COCC[C@H]1CC[C@]2(CC1)NC(=O)C(c1cc(-c3ccc(Cl)c(F)c3)ccc1C)=C2O [1-114, (5s,8s)-3-(4′-Chloro-3′-fluoro-4-methylbiphenyl-3-yl)-4-hydroxy-8-(2-methoxyethyl)-1-azaspiro[4.5]dec-3-en-2-one] | 43 nM | 1.64 µM | 236 nM | 2.21 µM | 113 nM | 
Cc1ccc(-c2ccc(F)c(F)c2)cc1C1=C(O)C2(CCCCC2)NC1=O [1-115, 3-(3′,4′-Difluoro-4-methylbiphenyl-3-yl)-4-hydroxy-1-azaspiro[4.5]dec-3-en-2-one] | 98 nM | 10.3 µM | 314 nM | 5.04 µM |  | 196 nM
COC[C@H]1CC[C@]2(CC1)NC(=O)C(c1cc(-c3ccc(Cl)cc3)ccc1C)=C2O [1-116, (5s,8s)-3-(4′-Chloro-4 methylbiphenyl-3-yl)-4-hydroxy-8-(methoxymethyl)-1-azaspiro[4.5]dec-3-en-2-one] | 31 nM | 0.591 µM | 232 nM | 0.28 µM | 92 nM | 
Cc1ccc(-c2ccc(Cl)cc2)cc1C1=C(O)[C@]2(CC[C@H](CO)CC2)NC1=O [1-117, (5s,8s)-3-(4′-Chloro-4 methylbiphenyl-3-yl)-4-hydroxy-8-(hydroxymethyl)-1-azaspiro[4.5]dec-3-en-2-one] | 64 nM | 4.11 µM | 232 nM | 0.812 µM |  | 194 nM
Cc1ccc(-c2ccc(Cl)cc2)cc1C1=C(O)[C@]2(CC[C@H](C(F)(F)F)CC2)NC1=O [1-119, (5s,8s)-3-(4′-Chloro-4 methylbiphenyl-3-yl)-4-hydroxy-8-(trifluoromethyl)-1-azaspiro[4.5]dec-3-en-2-one] | 37 nM | 1.08 µM | 203 nM | 0.479 µM | 110 nM | 
CO[C@H]1CC[C@]2(CC1)NC(=O)C(c1cc(-c3ccc(Cl)cc3)c(C)cc1C)=C2O [1-132, (5s,8s)-3-(4′-Chloro-4,6-dimethylbiphenyl-3-yl)-4-hydroxy-8-methoxy-1-azaspiro[4.5]dec-3-en-2-one] | 70 nM | 0.234 µM | 1710 nM | 0.106 µM |  | 912 nM
